Data published in patent publication US5118691A, “Substituted tetrahydropyridines as central nervous system agents” (Warner-Lambert Co., priority 1991, dated 1992).
Where two headings read alike, the source gives them in different places.

Assays:
[1] = test system: locomotor activity in mice; test: Inhibition of locomotor activity in mice; type: in vivo; conditions: Mus musculus, IP
Procedure: (§1) The compounds of Formula I are valuable dopaminergic agents. […] Thus, the compounds of Formula I were tested for their ability to inhibit locomotor activity in mice according to the assay described by J. R. McLean, et al, Pharmacology, Biochemistry and Behavior, Volume 8, pages 97-99 (1978); for their ability to inhibit [^3 H]-spiroperidol binding in a receptor assay described by D. Grigoriadis and P. Seeman, Journal of Neurochemistry, Volume 44, pages 1925-1935 (1985); and for their ability to inhibit dopamine synthesis in rats according to the protocol described by J. R. Walters and R. H. Roth, Naunyn-Schmiedeberg's Archives of Pharmacology, Volume 296, pages 5-14 (1976). The above test methods are incorporated herein by reference. The data in the table show the dopaminergic activity of representative compounds of Formula I.

[2] = biological target: T1, [^3 H]-spiroperidol binding (Rattus norvegicus, UniProt P61169); test: Inhibition of [^3 H]-spiroperidol binding in a receptor assay
T1 construct: from tissue; host or cells: brain striatum (own knowledge from the cited method)
Procedure: as §1

Brain Dopamine Synthesis = test: Inhibition of dopamine synthesis in rats (reversal of brain dopamine synthesis); type: in vivo; conditions: Rattus norvegicus, IP
Procedure: as §1

[3] = read-out: Inhibition of [^3 H]Spiroperidol Binding IC50

T1 sequence (P61169 whole entry): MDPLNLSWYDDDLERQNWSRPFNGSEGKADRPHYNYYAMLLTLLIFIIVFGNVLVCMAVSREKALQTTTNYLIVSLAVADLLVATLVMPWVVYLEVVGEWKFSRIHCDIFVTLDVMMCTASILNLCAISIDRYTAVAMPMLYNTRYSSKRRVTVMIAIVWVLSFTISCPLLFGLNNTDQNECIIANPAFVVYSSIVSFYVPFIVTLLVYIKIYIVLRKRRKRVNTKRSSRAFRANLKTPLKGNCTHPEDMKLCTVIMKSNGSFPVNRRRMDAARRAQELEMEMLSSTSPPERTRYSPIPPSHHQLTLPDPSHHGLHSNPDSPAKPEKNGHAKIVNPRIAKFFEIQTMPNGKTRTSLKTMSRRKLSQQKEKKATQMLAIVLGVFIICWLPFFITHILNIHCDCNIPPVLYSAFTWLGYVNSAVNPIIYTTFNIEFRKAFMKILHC

| Structure (SMILES) | ED50 [1] | IC50 [2] | inhibition in vivo at 10 mg/kg (Brain Dopamine Synthesis) | IC50 [2, 3] |
| --- | --- | --- | --- | --- |
| C1=C(c2ccccc2)CCN(CCCCc2ccncc2)C1 [Example 1, 4-[4-(3,6-Dihydro-4-phenyl-1(2H)-pyridinyl)butyl]-pyridine] | 0.6 mg/kg | 0.096 µM | 87% | – |
| C1=C(c2ccccn2)CCN(CCCCc2ccncc2)C1 [Example 2, 2-[1,2,3,6-Tetrahydro-1-[4-(4-pyridinyl)butyl]-4-pyridinyl]pyridine] | 0.7 mg/kg | – | 88% | 0.448 µM |
| C1=C(c2c[nH]c3ccccc23)CCN(CCCCc2ccncc2)C1 [Example 3] | 5 mg/kg | – | – | 0.398 µM |
| C1=C(c2cccs2)CCN(CCCCc2ccncc2)C1 [Example 4, 4-[4-[3,6-Dihydro-4-(2-thienyl)-1(2H)-pyridinyl]-butyl]pyridine] | 1.2 mg/kg | 0.69 µM | – | – |
| C1=C(c2ccccc2)CCN(CCCc2ccncc2)C1 [Example 5, 4-[3-(3,6-Dihydro-4-phenyl-1(2H)-pyridinyl)propyl]-pyridine] | 0.63 mg/kg | – | 61% | – |
| C1=C(c2ccccc2)CCN(CCCCCc2ccncc2)C1 [Example 7, 4-[5-(3,6-Dihydro-4-phenyl-1(2H)-pyridinyl)pentyl]-pyridine] | 0.9 mg/kg | – | – | – |
| C1=C(c2cccs2)CCN(CCCCc2cccnc2)C1 [Example 8, 3-[4-[3,6-Dihydro-4-(2-thienyl)-1(2H)-pyridinyl]-butyl]pyridine] | 0.66 mg/kg | – | 71% | 1.29 µM |
| O=C(CCCN1CC=C(c2ccccc2)CC1)c1cccnc1 [Example 9, 4-(3,6-Dihydro-4-phenyl-1(2H)-pyridinyl)-1-(3-pyridinyl)-1-butanone] | 1.1 mg/kg | – | 50% | – |
| O=C(CCCN1CC=C(c2ccccc2)CC1)c1ccncc1 [Example 10, 4-(3,6-Dihydro-4-phenyl-1(2H)-pyridinyl)-1-(4-pyridinyl)-1-butanone] | 1 mg/kg | – | 57% | 0.408 µM |
| C1=C(c2ccccc2)CCN(CCCCc2cccnc2)C1 [Example 12, 3-[4-(3,6-Dihydro-4-phenyl-1(2H)-pyridinyl)butyl]-pyridine] | 0.28 mg/kg | – | 80% | 0.17 µM |
| C1=C(c2ccccc2)CCN(CCCCc2cnc3ccccc3c2)C1 [Example 13, 3-[4-(3,6-Dihydro-4-phenyl-1(2H)-pyridinyl)butyl]-quinoline] | 0.37 mg/kg | 0.046 µM | 100% | – |
| C1=C(c2cccs2)CCN(CCCCc2cnc3ccccc3c2)C1 [Example 14] | 1.5 mg/kg | – | – | – |
| C1=C(c2ccccn2)CCN(CCCCc2cnc3ccccc3c2)C1 [Example 15, 3-[4-[3,6-Dihydro-4-(2-pyridinyl)-1(2H)-pyridinyl]-butyl]quinoline] | 0.14 mg/kg | – | – | – |
